According to patent US20260232642A1, “RNA-BINDING MOLECULES WITH A SMALL CORE SCAFFOLD (R-SCORE) AND USES THEREOF” (Max-Planck-Gesellschaft zur Förderung der Wissenschaften …, priority 2022, published 2026):
Where two headings read alike, the source gives them in different places.

How the values were obtained:
[1] = system: precursor microRNA-17 hairpin (pre-miR-17 hp); assay: Differential scanning fluorimetry (DSF), pre-miR-17 hairpin; type: binding; settings: 60 uM compound, 1 μM hairpin in PBS, Tm of compound minus Tm of DMSO control
Method: (§1) To measure the binding between compounds and precursor microRNA-21 hairpin (pre-miR-21 hp) or precursor microRNA-17 hairpin (pre-miR-17 hp), DSF was performed as previously described with modification (ACS Chem. Biol. 2017, 12, 2, 435-443). Precursor microRNA hairpin was dissolved in PBS and annealed by briefly heating to 95° C. for 3 min and slowly cooling to rt. Assay was performed in duplicates using white qPCR 8-strips (VWR) with a total volume of 10 μL in PBS. The total reaction consisted of 1 μM precursor microRNA hairpin, 1% test compound (DMSO dilution) and 2×SYBR GreenII (Thermo Fisher Scientific). Compounds were incubated with precursor microRNA hairpin at for 10 min at rt, then SYBR GreenII was added to each well, mixed and incubated 10 min at rt. The strips were spined and loaded to the RT-PCR detection system (BIO-RAD CFX Connect), the fluorescence intensity was obtained every 1° C. for 30 s in the range of 20° C. to 80° C.
(§2) The melting temperature (Tm) was determined by the maximum of the negative of the first derivative of the fluorescence vs temperature melting curves. The ΔTm was calculated by the Tm value of compound subtract the Tm value of the DMSO control.

[2] = system: precursor microRNA-21 hairpin (pre-miR-21 hp); assay: Differential scanning fluorimetry (DSF), pre-miR-21 hairpin; type: binding; settings: 60 uM compound, 1 μM hairpin in PBS, Tm of compound minus Tm of DMSO control
Method: as §1, §2

Ramos cells = assay: MTT assay, Ramos; type: cell-based, human; settings: 72 h, Burkitt lymphoma cell line, read-out: Cell lines IC50 [μM] Ramos
Method: (§3) MAD-MB-231, MCF-7 and JAR cells were cultured in Dulbecco's modified Eagle's (DMEM) medium supplemented with 10% Fetal Bovine Serum (FBS), 100 u/mL penicillin-streptomycin. Jurkat, Molt-4 and Ramos cells were cultured in Roswell Park Memorial Institute (RPMI) 1640 medium with 10% Fetal Bovine Serum (FBS), 100 u/mL penicillin-streptomycin. All cell lines grown in an incubator with humidified 5% CO2 at 37° C.
(§4) Jurkat, Molt-4 and Ramos cells were collected and seeded into 96-well plates at a density of 8000-10000 per well and treated with compounds. MCF-7, MDA-MB-231 and JAR cells were collected and seeded into 96-well plates at a density of 2000-3000 per well and cultured overnight to adherent before treat with compounds. After exposed to increasing concentrations of compounds for 72 h, the cells in each well were mixed with 20 μL of 5 mg/ml MTT (3-(4,5-dimethylthiazol-2-yl)-2,5-diphenyltetrazolium bromide) for 2 h, then add 50 μL of 20% SDS/0.01 M HCl incubated overnight, and detected the absorbance at a wavelength of 570 nm.
(§5) Inhibition rate was calculated using the equation: […]
(§6) The IC50 values were calculated by using GraphPad Prism 9 software fitting to a dose-response inhibition equation.

Molt-4 cells = assay: MTT assay, Molt-4; type: cell-based, human; settings: acute leukemia cell line, read-out: Cell lines IC50 [μM] Molt-4
Method: as §3, §4, §5, §6

Jurkat cells = assay: MTT assay, Jurkat; type: cell-based, human; settings: 72 h, acute leukemia cell line, read-out: Cell lines IC50 [μM] Jurkat
Method: as §3, §4, §5, §6

MCF-7 cells = assay: MTT assay, MCF-7; type: cell-based, human; settings: breast cancer cell line, read-out: Cell lines IC50 [μM] MCF-7
Method: as §3, §4, §5, §6

MDA-MB-231 cells = assay: MTT assay, MDA-MB-231; type: cell-based, human; settings: breast cancer cell line, read-out: Cell lines IC50 [μM] MDA-MB-231
Method: as §3, §4, §5, §6

JAR cells = assay: MTT assay, JAR; type: cell-based, human; settings: 72 h, choriocarcinoma cell line, read-out: Cell lines IC50 [μM] JAR
Method: as §3, §4, §5, §6

IC50 (Ramos cells; Homo sapiens, Ramos)	IC50 (Molt-4 cells; 72 h)	IC50 (Jurkat cells)	IC50 (MCF-7 cells; 72 h)	IC50 (MDA-MB-231 cells; 72 h)	IC50 (Molt-4 cells; Homo sapiens, MOLT-4, 72 h)	IC50 (Jurkat cells; Homo sapiens, Jurkat)	IC50 (Ramos cells)	IC50 (MCF-7 cells; Homo sapiens, MCF7, 72 h)	IC50 (MDA-MB-231 cells; Homo sapiens, MDA-MB-231, 72 h)	Compound	ΔTm (pre-miR-17 hp) @60 uM [° C.] [1]	ΔTm (pre-miR-21 hp) @60 uM [° C.] [2]	IC50 (JAR cells)	IC50 (JAR cells; Homo sapiens)
8.27 µM	12.1 µM	11.2 µM	8.24 µM	10.8 µM	–	–	–	–	–	CNc1nc(N2CC(c3ccc(-c4ccc5nc[nH]c5c4)cc3)C2C#N)nc2ccccc12 (stereo not drawn) [Compound B10, 3-(4-(1H-benzo[d]imidazol-6-yl)phenyl)-1-(4-(methylamino)quinazolin-2-yl) azetidine-2-carbonitrile]	0 °C	0 °C	4.78 µM	–
–	–	–	> 20 µM	> 20 µM	–	–	–	–	–	3-(4-(1H-benzo[d]imidazol-6-yl)phenyl)-1-(3-aminothieno[2,3-b]pyridine-2-carbonyl)-4-(hydroxymethyl)azetidine-2-carbonitrile [Compound A7]	0 °C	0 °C	5.74 µM	–
26.8 µM	–	–	–	–	8.5 µM	19.1 µM	–	–	–	CCCN1C(CO)C(c2ccc(-c3ccc4nc[nH]c4c3)cc2)C1CNC(=O)c1sc2ncccc2c1N (stereo not drawn) [Compound A8, N-((3-(4-(1H-benzo[d]imidazol-6-yl)phenyl)-4-(hydroxymethyl)-1-propylazetidin-2-yl)methyl)-3-aminothieno[2,3-b]pyridine-2-carboxamide]	–	–	–	–
–	4.61 µM	3.35 µM	–	–	–	–	3.8 µM	–	–	N#CC1C(c2ccc(-c3ccc(C(F)(F)F)cc3)cc2)C(CO)N1C(=O)c1sc2ncccc2c1N (stereo not drawn) [Compound A2, 1-(3-aminothieno[2,3-b]pyridine-2-carbonyl)-4-(hydroxymethyl)-3-(4′-(trifluoromethyl)-[1,1 biphenyl]-4-yl) azetidine-2-carbonitrile]	−2 °C	−2.5 ± 0.5 °C	3.41 µM	–
1.82 µM	–	–	–	–	4.79 µM	5.47 µM	–	5.23 µM	7.07 µM	CNc1nc(N2CC(C3(C(F)(F)F)C=CC(c4ccccc4)=CC3)C2C#N)nc2ccccc12 (stereo not drawn) [Compound B6, 1-(4-(methylamino)quinazolin-2-yl)-3-(4 (trifluoromethyl)-[1,1′-biphenyl]-4-yl) azetidine-2-carbonitrile]	1.25 °C	–	–	1.29 µM
6.61 µM	–	–	–	–	13.9 µM	7.42 µM	–	–	–	N#CC1C(c2ccc(-c3ccc(C(F)(F)F)cc3)cc2)CN1C(=O)c1sc2ncccc2c1N (stereo not drawn) [Compound B7, 1-(3-aminothieno[2,3-b]pyridine-2-carbonyl)-3-(4′-(trifluoromethyl)-[1,1′-biphenyl]-4-yl) azetidine-2-carbonitrile]	–	–	1.16 µM	1.5 µM
–	–	–	5.72 µM	12.5 µM	–	–	–	–	–	Cc1noc(C)c1-c1ccc(C2CN(C(=O)c3sc4ncccc4c3N)C2C#N)cc1 (stereo not drawn) [Compound B3, 1-(3-aminothieno[2,3-b]pyridine-2-carbonyl)-3-(4-(3,5-dimethylisoxazol-4-yl)phenyl) azetidine-2-carbonitrile]	–	–	1.28 µM	–

Compound	IC50 (Ramos cells; Homo sapiens, Ramos)	IC50 (Molt-4 cells; 72 h)	IC50 (Jurkat cells)	IC50 (MCF-7 cells; 72 h)	IC50 (MDA-MB-231 cells; 72 h)	IC50 (Molt-4 cells; Homo sapiens, MOLT-4, 72 h)	IC50 (Jurkat cells; Homo sapiens, Jurkat)	IC50 (Ramos cells)	IC50 (MCF-7 cells; Homo sapiens, MCF7, 72 h)	IC50 (MDA-MB-231 cells; Homo sapiens, MDA-MB-231, 72 h)	ΔTm (pre-miR-17 hp) @60 uM [° C.] [1]	ΔTm (pre-miR-21 hp) @60 uM [° C.] [2]	IC50 (JAR cells)	IC50 (JAR cells; Homo sapiens)
CCCN1C(CO)C(c2ccc(-c3ccc(C(F)(F)F)cc3)cc2)C1CNC(=O)c1sc2ncccc2c1N (stereo not drawn) [Compound A5, 3-amino-N-((4-(hydroxymethyl)-1-propyl-3-(4′-(trifluoromethyl)-[1,1′-biphenyl]-4-yl)azetidin-2-yl)methyl) thieno[2,3-b]pyridine-2-carboxamide]	5.05 µM	–	–	–	–	5.49 µM	5.13 µM	–	–	–	–	–	–	–
CCCN1C(CO)C(c2ccc(-c3ccc(C(F)(F)F)cc3)cc2)C1CNC(=O)c1sc2ncccc2c1N (stereo not drawn) [Compound A4, 3-amino-N-((4-(hydroxymethyl)-1-propyl-3-(4′-(trifluoromethyl)-[1,1′-biphenyl]-4-yl)azetidin-2-yl)methyl) thieno[2,3-b]pyridine-2-carboxamide]	–	–	–	5.79 µM	7.02 µM	–	–	–	–	–	−1 °C	−2 °C	2.3 µM	–
